“And” between values parts separate entries of the source, which are not always exact repeats. Equal values may be shown once. “Also recorded” adds a separate entry of the source. Where a name gives a salt, the structure may show the parent alone. Blank lines part the entries; values can stand above or below the molecule they belong to.
Experiments:
B16 Melanoma = assay: Antitumor activity in the B16 melanoma system (NCI screen); details: for % T/C (median lifetime) / cures (live animals day 60) / Survivors Day 4 / WT Diff, g (T - C): B16, Q01D × 09; for antitumor activity (in words): summary statements on in vivo screening, Table VI
Experimental: Another approach to make basic derivatives is based on the concept of taking an existing hydrolysable derivative and further modifying it to form a derivative that allows for stepwise hydrolysis.
Antitumor Activity in the B16 Melanoma System^a
^a Screening was carried out under the auspices of the National Cance
Institute. For detailed explanations of procedures and data, see
Instruction 14, Screening Data Summary Interpretation and Outline of
Current Screen, Drug Evaluation Branch, Developmental Therapeutics
Program, Division of Cancer Treatment, National Cancer Institute,
Bethesda, Maryland 20892.
^b Q01D × 09. Single dose for 9 days; given in milligrams per
kilogram body weight per injection.
^c Abbreviations: survivors day 4, live animals on the fourth day of
testing/total animal; wt diff, g (T - C), the difference in body weight i
grams between test and control animals; % T/C, the median lifetime of tes
animals divided by the median lifetime of control animals, times 100; for
the solid tumor system % T/C is 100 × (change in treated tumor wt 1
day 11 - day 0)/change in control tumor wt.) if the tumor grows or 100
× (change in treated tumor wt./initial treated tumor wt.) if the
tumor regresses; cures, number of live animals on the last day of
evaluation for the B16 melanoma system (day 60) or number of animals
without measurable tumor on day 11 for the MX1 mammary tumor system.

Aqueous solubility = details: water
[1] = 7 mg/kg (so in the source) per injection

SMILES: CC(=O)O[C@H]1C(=O)[C@@]2(C)[C@H]([C@H](OC(=O)c3ccccc3)[C@]3(O)C[C@H](OC(=O)[C@H](OC(=O)CCC(=O)O)[C@@H](NC(=O)c4ccccc4)c4ccccc4)C(C)=C1C3(C)C)[C@]1(OC(C)=O)CO[C@@H]1C[C@@H]2O [Example 1, 2' Succinyltaxol]
% T/C (median lifetime) (B16 Melanoma; 2.5 mg/kg per injection): 119%
% T/C (median lifetime) (B16 Melanoma; 5 mg/kg per injection): 154%
% T/C (median lifetime) (B16 Melanoma; 10 mg/kg per injection): 159%
cures (live animals day 60) (B16 Melanoma; 10 mg/kg per injection): 1
% T/C (median lifetime) (B16 Melanoma; 20 mg/kg per injection): 154%
% T/C (median lifetime) (B16 Melanoma; 40 mg/kg per injection): 185%
cures (live animals day 60) (B16 Melanoma; 40 mg/kg per injection): 2
aqueous solubility (in words) (Aqueous solubility): not water soluble

SMILES: CC(=O)O[C@H]1C(=O)[C@]2(C)[C@@H](OC(=O)CCC(=O)O)C[C@H]3OC[C@@]3(OC(C)=O)[C@H]2[C@H](OC(=O)c2ccccc2)[C@]2(O)C[C@H](OC(=O)[C@H](OC(=O)CCC(=O)O)[C@@H](NC(=O)c3ccccc3)c3ccccc3)C(C)=C1C2(C)C [Example 2, 2'7-Disuccinyltaxol]
% T/C (median lifetime) (B16 Melanoma; 1 mg/kg (so in the source) per injection): 124%
% T/C (median lifetime) (B16 Melanoma; 2.75 mg/kg per injection): 109%
% T/C (median lifetime) (B16 Melanoma; 5.5 mg/kg per injection): 113%
% T/C (median lifetime) (B16 Melanoma; 22 mg/kg per injection): 105%
% T/C (median lifetime) (B16 Melanoma; 44 mg/kg per injection): 114%
antitumor activity (in words) (B16 Melanoma): considerably less active than the corresponding 2'-mono derivative of Example 1 and its salts
aqueous solubility (in words) (Aqueous solubility): not water soluble

SMILES: CC(=O)O[C@H]1C(=O)[C@]2(C)[C@@H](OC(=O)CCC(=O)O)C[C@H]3OC[C@@]3(OC(C)=O)[C@H]2[C@H](OC(=O)c2ccccc2)[C@]2(O)C[C@H](OC(=O)[C@H](OC(=O)CCC(=O)O)[C@@H](NC(=O)c3ccccc3)c3ccccc3)C(C)=C1C2(C)C [Example 2, Na-Salt]
% T/C (median lifetime) (B16 Melanoma; 2.75 mg/kg per injection, listed as 2, Na-Salt): 120%
% T/C (median lifetime) (B16 Melanoma; 5.5 mg/kg per injection, listed as 2, Na-Salt): 114%
% T/C (median lifetime) (B16 Melanoma; 11 mg/kg per injection): 149%
% T/C (median lifetime) (B16 Melanoma; 22 mg/kg per injection, listed as 2, Na-Salt): 109%
% T/C (median lifetime) (B16 Melanoma; 44 mg/kg per injection, listed as 2, Na-Salt): 166%
antitumor activity (in words) (B16 Melanoma; listed as 2, sodium salt): improved antitumor activity as compared to the free acid; also recorded: considerably less active than the corresponding 2'-mono derivative of Example 1 and its salts
solubility (Aqueous solubility; aqueous solubility): ~3000 µg/mL

SMILES: CC(=O)O[C@H]1C(=O)[C@@]2(C)[C@H]([C@H](OC(=O)c3ccccc3)[C@]3(O)C[C@H](OC(=O)[C@H](OC(=O)CCCC(=O)O)[C@@H](NC(=O)c4ccccc4)c4ccccc4)C(C)=C1C3(C)C)[C@]1(OC(C)=O)CO[C@@H]1C[C@@H]2O [Example 16]
% T/C (median lifetime) (B16 Melanoma; 6.63 mg/kg per injection): 207%
Survivors Day 4 (B16 Melanoma; 6.63 mg/kg per injection): 8/8
WT Diff, g (T - C) (B16 Melanoma; 6.63 mg/kg per injection): 0.4 g
% T/C (median lifetime) (B16 Melanoma; 13.25 mg/kg per injection): 291%
Survivors Day 4 (B16 Melanoma; 13.25 mg/kg per injection): 8/8
WT Diff, g (T - C) (B16 Melanoma; 13.25 mg/kg per injection): 0.4 g
% T/C (median lifetime) (B16 Melanoma; 26.5 mg/kg per injection): 239%
Survivors Day 4 (B16 Melanoma; 26.5 mg/kg per injection): 8/8
WT Diff, g (T - C) (B16 Melanoma; 26.5 mg/kg per injection): 0.4 g
cures (live animals day 60) (B16 Melanoma; 26.5 mg/kg per injection): 2
% T/C (median lifetime) (B16 Melanoma; 53 mg/kg per injection): 300%
Survivors Day 4 (B16 Melanoma; 53 mg/kg per injection): 8/8
WT Diff, g (T - C) (B16 Melanoma; 53 mg/kg per injection): 0.4 g
cures (live animals day 60) (B16 Melanoma; 53 mg/kg per injection): 1
antitumor activity (in words) (B16 Melanoma): very active and potent; also recorded: improved biological properties as compared to the corresponding succinates of Examples 12 and 8

SMILES: CC(=O)O[C@H]1C(=O)[C@@]2(C)[C@H]([C@H](OC(=O)c3ccccc3)[C@]3(O)C[C@H](OC(=O)[C@H](OC(=O)CCCC(=O)O)[C@@H](NC(=O)c4ccccc4)c4ccccc4)C(C)=C1C3(C)C)[C@]1(OC(C)=O)CO[C@@H]1C[C@@H]2O [Example 17]
% T/C (median lifetime) (B16 Melanoma; 6.13 mg/kg per injection): 159%
Survivors Day 4 (B16 Melanoma; 6.13 mg/kg per injection): 8/8
WT Diff, g (T - C) (B16 Melanoma; 6.13 mg/kg per injection): 0.4 g
% T/C (median lifetime) (B16 Melanoma; 12.25 mg/kg per injection): 192%
Survivors Day 4 (B16 Melanoma; 12.25 mg/kg per injection): 8/8
WT Diff, g (T - C) (B16 Melanoma; 12.25 mg/kg per injection): 0.6 g
% T/C (median lifetime) (B16 Melanoma; 24.5 mg/kg per injection): 225%
Survivors Day 4 (B16 Melanoma; 24.5 mg/kg per injection): 7/7
WT Diff, g (T - C) (B16 Melanoma; 24.5 mg/kg per injection): 1.5 g
% T/C (median lifetime) (B16 Melanoma; 49 mg/kg per injection): 339%
Survivors Day 4 (B16 Melanoma; 49 mg/kg per injection): 7/7
WT Diff, g (T - C) (B16 Melanoma; 49 mg/kg per injection): 0.4 g
antitumor activity (in words) (B16 Melanoma): very active and potent; also recorded: improved biological properties as compared to the corresponding succinates of Examples 12 and 8

SMILES: CC(=O)O[C@H]1C(=O)[C@@]2(C)[C@H]([C@H](OC(=O)c3ccccc3)[C@]3(O)C[C@H](OC(=O)[C@H](OC(=O)CCCC(=O)NCCCN(C)C)[C@@H](NC(=O)c4ccccc4)c4ccccc4)C(C)=C1C3(C)C)[C@]1(OC(C)=O)CO[C@@H]1C[C@@H]2O [Example 25, Aminoamide Derivative of 2'-Glutaryltaxol]
antitumor activity (in words) (B16 Melanoma): extremely potent and active

Second part, led by results:

aqueous solubility (Aqueous solubility): about 1%
SMILES: CC(=O)O[C@H]1C(=O)[C@@]2(C)[C@H]([C@H](OC(=O)c3ccccc3)[C@]3(O)C[C@H](OC(=O)[C@H](OC(=O)CCC(=O)O)[C@@H](NC(=O)c4ccccc4)c4ccccc4)C(C)=C1C3(C)C)[C@]1(OC(C)=O)CO[C@@H]1C[C@@H]2O [Example 8, 2'-Succinyltaxol, Triethanolamine Salt]
% T/C (median lifetime) (B16 Melanoma; 6.75 mg/kg per injection): 230%
cures (live animals day 60) (B16 Melanoma; 6.75 mg/kg per injection): 1
% T/C (median lifetime) (B16 Melanoma; [1]): 314%
cures (live animals day 60) (B16 Melanoma; [1]): 3
% T/C (median lifetime) (B16 Melanoma; 13.5 mg/kg per injection): 264%
cures (live animals day 60) (B16 Melanoma; 13.5 mg/kg per injection): 1
% T/C (median lifetime) (B16 Melanoma; 54 mg/kg per injection): TOXIC
antitumor activity (in words) (B16 Melanoma): much more active than the compound of Example 12; also recorded: especially active and potent
aqueous solubility (in words) (Aqueous solubility): greatly improved aqueous solubility; also recorded: although still soluble, the solutions were not clear and became very viscous

aqueous solubility (Aqueous solubility): about 1%
SMILES: CC(=O)O[C@H]1C(=O)[C@@]2(C)[C@H]([C@H](OC(=O)c3ccccc3)[C@]3(O)C[C@H](OC(=O)[C@H](OC(=O)CCC(=O)O)[C@@H](NC(=O)c4ccccc4)c4ccccc4)C(C)=C1C3(C)C)[C@]1(OC(C)=O)CO[C@@H]1C[C@@H]2O [Example 11]
% T/C (median lifetime) (B16 Melanoma; 6.25 mg/kg per injection): 125%
% T/C (median lifetime) (B16 Melanoma; 12.5 mg/kg per injection): 134%
% T/C (median lifetime) (B16 Melanoma; 25 mg/kg per injection): 176%
% T/C (median lifetime) (B16 Melanoma; 50 mg/kg per injection): 241%
antitumor activity (in words) (B16 Melanoma): much more active than the compound of Example 12
aqueous solubility (in words) (Aqueous solubility): greatly improved aqueous solubility; also recorded: although still soluble, the solutions were not clear and became very viscous

aqueous solubility (Aqueous solubility; listed as 1, sodium salt): about 0.1%
SMILES: CC(=O)O[C@H]1C(=O)[C@@]2(C)[C@H]([C@H](OC(=O)c3ccccc3)[C@]3(O)C[C@H](OC(=O)[C@H](OC(=O)CCC(=O)O)[C@@H](NC(=O)c4ccccc4)c4ccccc4)C(C)=C1C3(C)C)[C@]1(OC(C)=O)CO[C@@H]1C[C@@H]2O [Example 12]
% T/C (median lifetime) (B16 Melanoma; 1.25 mg/kg per injection): 111%
% T/C (median lifetime) (B16 Melanoma; 2.5 mg/kg per injection): 159% and 125%
cures (live animals day 60) (B16 Melanoma; 2.5 mg/kg per injection): 1
% T/C (median lifetime) (B16 Melanoma; 5 mg/kg per injection): 166% and 131%
% T/C (median lifetime) (B16 Melanoma; 10 mg/kg per injection): 183% and 160%
cures (live animals day 60) (B16 Melanoma; 10 mg/kg per injection): 1
% T/C (median lifetime) (B16 Melanoma; 20 mg/kg per injection): 201% and 160%
% T/C (median lifetime) (B16 Melanoma; 40 mg/kg per injection): 218% and 177%
cures (live animals day 60) (B16 Melanoma; 40 mg/kg per injection): 2
antitumor activity (in words) (B16 Melanoma; listed as 1, sodium salt): improved antitumor activity as compared to the free acid
